US7439372B2, “Therapeutic compounds” (Allergan, Inc., priority 2006, dated 2008)

Tests used:
Assay type in all cases: cell-based
hFP = target: T1, hFP (Homo sapiens, UniProt P43088); test: FLIPR calcium signal, HEK-293(EBNA) cells expressing hFP
T1 construct: expressed in transfected cells; host or cells: HEK-293(EBNA)
Protocol: (§1) HEK-293(EBNA) cells, stably expressing one type or subtype of recombinant human prostaglandin receptors (prostaglandin receptors expressed: hDP/Gqs5; hEP1; hEP2/Gqs5; hEP3A/Gqi5; hEP4/Gqs5; hFP; hIP; hTP), were cultured in 100 mm culture dishes in high-glucose DMEM medium containing 10% fetal bovine serum, 2 mM l-glutamine, 250 µg/ml geneticin (G418) and 200 μg/ml hygromycin B as selection markers, and 100 units/ml penicillin G, 100 µg/ml streptomycin and 0.25 μg/ml amphotericin B.
(§2) Cells were seeded at a density of 5×10^4 cells per well in Biocoat® Poly-D-lysine-coated black-wall, clear-bottom 96-well plates (Becton-Dickinson) and allowed to attach overnight in an incubator at 37° C. Cells were then washed two times with HBSS-HEPES buffer (Hanks Balanced Salt Solution without bicarbonate and phenol red, 20 mM HEPES, pH 7.4) using a Denley Cellwash plate washer (Labsystems). After 45 minutes of dye-loading in the dark, using the calcium-sensitive dye Fluo-4 […] at a final concentration of 2 μM, plates were washed four times with HBSS-HEPES buffer to remove excess dye leaving 100 μl in each well. Plates were re-equilibrated to 37° C. for a few minutes.
(§3) Cells were excited with an Argon laser at 488 nm, and emission was measured through a 510-570 nm bandwidth emission filter (FLIPR™, Molecular Devices, Sunnyvale, Calif.). Drug solution was added in a 50 µl volume to each well to give the desired final concentration. The peak increase in fluorescence intensity was recorded for each well. On each plate, four wells each served as negative (HBSS-HEPES buffer) and positive controls (standard agonists: BW245C (hDP); PGE2 (hEP1; hEP2/Gqs5; hEP3A/Gqi5; hEP4/Gqs5); PGF2α (hFP); carbacyclin (hIP); U-46619 (hTP), depending on receptor). The peak fluorescence change in each drug-containing well was then expressed relative to the controls.
(§4) Compounds were tested in a high-throughput (HTS) or concentration-response (CoRe) format. In the HTS format, forty-four compounds per plate were examined in duplicates at a concentration of 10^−5 M. To generate concentration-response curves, four compounds per plate were tested in duplicates in a concentration range between 10^−5 and 10^−11 M. The duplicate values were averaged. In either, HTS or CoRe format each compound was tested on at least 3 separate plates using cells from different passages to give an n≧3.

hEP1 = target: T2, hEP1 (Homo sapiens, UniProt P34995); test: FLIPR calcium signal, HEK-293(EBNA) cells expressing hEP1
T2 construct: expressed in transfected cells; host or cells: HEK-293(EBNA)
T2 sequence (P34995 1-402): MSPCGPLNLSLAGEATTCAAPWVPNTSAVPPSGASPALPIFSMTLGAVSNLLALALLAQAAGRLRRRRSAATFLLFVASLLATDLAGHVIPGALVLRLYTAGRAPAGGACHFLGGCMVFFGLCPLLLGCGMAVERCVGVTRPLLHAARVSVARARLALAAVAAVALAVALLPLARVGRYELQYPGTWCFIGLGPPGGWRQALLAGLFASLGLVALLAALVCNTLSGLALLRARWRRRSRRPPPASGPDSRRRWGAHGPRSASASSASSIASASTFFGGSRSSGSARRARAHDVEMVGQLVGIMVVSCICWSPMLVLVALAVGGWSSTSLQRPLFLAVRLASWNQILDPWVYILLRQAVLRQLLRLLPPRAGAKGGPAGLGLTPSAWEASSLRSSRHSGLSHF
Protocol: as §1, §2, §3, §4

hEP2/Gqs5 = target: T3, hEP2/Gqs5 (Homo sapiens, UniProt P43116); test: FLIPR calcium signal, HEK-293(EBNA) cells expressing hEP2/Gqs5; conditions: value outside parentheses, read-out: Ca2+ Signal-EC50(nM) EP2
T3 construct: expressed in transfected cells; host or cells: HEK-293(EBNA)
Protocol: as §1, §2, §3, §4

hEP3A/Gqi5 = target: T4, hEP3A/Gqi5 (Homo sapiens, UniProt P43115); test: FLIPR calcium signal, HEK-293(EBNA) cells expressing hEP3A/Gqi5; conditions: for EC50: read-out: Ca2+ Signal-EC50(nM) EP3
T4 construct: expressed in transfected cells; host or cells: HEK-293(EBNA)
T4 sequence (P43115 1-390): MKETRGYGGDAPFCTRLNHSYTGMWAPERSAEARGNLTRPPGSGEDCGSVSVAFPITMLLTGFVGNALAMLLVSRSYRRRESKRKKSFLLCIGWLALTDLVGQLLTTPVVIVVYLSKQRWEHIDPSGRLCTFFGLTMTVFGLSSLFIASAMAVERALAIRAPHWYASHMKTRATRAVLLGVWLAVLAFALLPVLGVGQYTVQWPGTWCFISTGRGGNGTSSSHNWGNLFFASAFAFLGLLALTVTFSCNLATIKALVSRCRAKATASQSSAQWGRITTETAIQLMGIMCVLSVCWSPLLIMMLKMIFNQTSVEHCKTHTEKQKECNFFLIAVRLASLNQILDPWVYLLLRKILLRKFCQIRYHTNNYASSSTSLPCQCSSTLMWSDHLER
Protocol: as §1, §2, §3, §4

hEP4/Gqs5 = target: T5, hEP4/Gqs5 (Homo sapiens, UniProt P35408); test: FLIPR calcium signal, HEK-293(EBNA) cells expressing hEP4/Gqs5; conditions: for EC50: read-out: Ca2+ Signal-EC50(nM) EP4
T5 construct: expressed in transfected cells; host or cells: HEK-293(EBNA)
Protocol: as §1, §2, §3, §4

hTP = target: T6, hTP (Homo sapiens, UniProt P21731); test: FLIPR calcium signal, HEK-293(EBNA) cells expressing hTP
T6 construct: expressed in transfected cells; host or cells: HEK-293(EBNA)
T6 sequence (P21731 1-343): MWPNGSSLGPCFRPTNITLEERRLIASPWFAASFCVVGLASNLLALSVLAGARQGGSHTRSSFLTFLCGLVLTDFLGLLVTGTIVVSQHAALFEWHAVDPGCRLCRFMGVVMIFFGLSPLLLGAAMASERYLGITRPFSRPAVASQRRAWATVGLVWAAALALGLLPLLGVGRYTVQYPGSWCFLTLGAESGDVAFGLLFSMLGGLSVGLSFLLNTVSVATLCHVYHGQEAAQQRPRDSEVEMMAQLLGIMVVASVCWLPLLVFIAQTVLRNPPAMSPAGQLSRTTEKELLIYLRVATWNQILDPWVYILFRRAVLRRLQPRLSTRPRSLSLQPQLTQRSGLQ
Protocol: as §1, §2, §3, §4

hDP/Gqs5 = target: T7, hDP/Gqs5 (Homo sapiens, UniProt Q13258); test: FLIPR calcium signal, HEK-293(EBNA) cells expressing hDP/Gqs5
T7 construct: expressed in transfected cells; host or cells: HEK-293(EBNA)
T7 sequence (Q13258 1-359): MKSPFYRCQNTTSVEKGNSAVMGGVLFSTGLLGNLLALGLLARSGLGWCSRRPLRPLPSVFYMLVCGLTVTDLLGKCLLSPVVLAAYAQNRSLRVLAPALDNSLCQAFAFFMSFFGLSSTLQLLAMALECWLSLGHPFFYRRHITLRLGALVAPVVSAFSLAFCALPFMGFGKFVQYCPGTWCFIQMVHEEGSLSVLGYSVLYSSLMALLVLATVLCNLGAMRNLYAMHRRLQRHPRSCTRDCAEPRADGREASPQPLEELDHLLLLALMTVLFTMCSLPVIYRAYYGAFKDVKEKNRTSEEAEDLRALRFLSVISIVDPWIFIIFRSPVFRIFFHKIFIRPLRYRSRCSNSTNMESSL
Protocol: as §1, §2, §3, §4

EP2 = EP2 (Homo sapiens, UniProt P43116); test: cAMP measurement, EP2 (data in parentheses); conditions: data in parentheses refer to cAMP measurement
EP2, sequence (P43116 whole entry): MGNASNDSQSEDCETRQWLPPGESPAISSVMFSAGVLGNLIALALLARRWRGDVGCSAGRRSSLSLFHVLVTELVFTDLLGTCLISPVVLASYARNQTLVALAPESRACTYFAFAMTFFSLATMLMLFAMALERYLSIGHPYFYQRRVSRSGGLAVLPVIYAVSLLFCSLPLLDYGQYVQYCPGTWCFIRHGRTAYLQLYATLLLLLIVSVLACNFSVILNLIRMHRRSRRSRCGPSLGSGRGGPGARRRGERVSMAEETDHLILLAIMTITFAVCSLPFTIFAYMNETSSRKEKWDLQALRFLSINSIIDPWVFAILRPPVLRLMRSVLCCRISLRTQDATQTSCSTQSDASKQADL

T3 sequence (P43116 whole entry): as above
T5 sequence (P35408 whole entry): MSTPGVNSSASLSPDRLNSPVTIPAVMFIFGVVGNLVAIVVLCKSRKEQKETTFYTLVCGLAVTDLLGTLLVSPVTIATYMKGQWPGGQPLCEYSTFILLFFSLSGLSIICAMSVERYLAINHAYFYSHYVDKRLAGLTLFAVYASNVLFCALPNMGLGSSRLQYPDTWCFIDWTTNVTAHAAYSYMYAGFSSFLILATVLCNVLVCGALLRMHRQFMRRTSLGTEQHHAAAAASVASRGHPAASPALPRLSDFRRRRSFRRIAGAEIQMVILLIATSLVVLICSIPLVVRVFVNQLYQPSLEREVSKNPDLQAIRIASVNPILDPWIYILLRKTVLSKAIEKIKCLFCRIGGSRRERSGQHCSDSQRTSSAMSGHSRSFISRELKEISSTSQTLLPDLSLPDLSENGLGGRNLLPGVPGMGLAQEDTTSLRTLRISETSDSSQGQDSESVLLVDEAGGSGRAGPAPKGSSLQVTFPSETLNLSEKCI
T1 sequence (P43088 whole entry): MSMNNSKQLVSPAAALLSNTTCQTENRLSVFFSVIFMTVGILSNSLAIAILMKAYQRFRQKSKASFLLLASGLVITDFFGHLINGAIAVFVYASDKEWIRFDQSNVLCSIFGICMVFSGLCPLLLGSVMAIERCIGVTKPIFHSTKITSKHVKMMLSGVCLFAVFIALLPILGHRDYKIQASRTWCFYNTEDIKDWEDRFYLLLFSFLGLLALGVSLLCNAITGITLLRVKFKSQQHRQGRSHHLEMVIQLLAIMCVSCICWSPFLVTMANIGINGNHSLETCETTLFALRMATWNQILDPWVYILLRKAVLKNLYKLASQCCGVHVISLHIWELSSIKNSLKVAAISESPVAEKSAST

| SMILES | Ca2+ Signal-EC50(nM) FP (hFP) | Ca2+ Signal-EC50(nM) EP1 (hEP1) | EC50 (hEP2/Gqs5) | Ca2+ Signal-EC50(nM) EP3 (hEP3A/Gqi5) | Ca2+ Signal-EC50(nM) EP4 (hEP4/Gqs5) | Ca2+ Signal-EC50(nM) TP (hTP) | Ca2+ Signal-EC50(nM) DP (hDP/Gqs5) | EC50 (EP2) | EC50 (hEP3A/Gqi5) | EC50 (hEP4/Gqs5) | EC50 (hDP/Gqs5; read-out: Ca2+ Signal-EC50(nM) DP) |
| --- | --- | --- | --- | --- | --- | --- | --- | --- | --- | --- | --- |
| CCCCCC(O)c1ccc([C@@H]2[C@@H](CCCc3ccc(C(=O)O)s3)CCC2(Cl)Cl)cc1 (some centres unmarked) [compound 3] | notactive | notactive | 1620 nM | notactive | notactive | notactive | notactive | 3 nM |  |  |  |
| CCCCCC(O)c1ccc([C@H]2C(=O)CC[C@@H]2CCCc2ccc(C(=O)O)s2)cc1 (some centres unmarked) [compound 1] | notactive | notactive | 62 nM |  |  | notactive | notactive | 5 nM | 8780 nM | > 10000 nM |  |
| CCCCCC(O)c1ccc([C@H]2C(=O)C=C[C@@H]2CCCc2ccc(C(=O)O)s2)cc1 (some centres unmarked) [compound 11] | notactive | notactive | 208 nM |  |  | notactive | notactive | 9 nM | 4550 nM | > 10000 nM |  |
| CCCCCC(O)c1ccc([C@H]2C(=O)CC[C@@H]2CCCc2ccc(C(=O)O)s2)cc1 (some centres unmarked) [compound 2] | notactive | notactive | 25 nM | notactive | notactive | notactive |  | 9 nM |  |  | 9060 nM |

Further lines, results first:

| Ca2+ Signal-EC50(nM) FP (hFP) | Ca2+ Signal-EC50(nM) EP1 (hEP1) | EC50 (hEP2/Gqs5) | Ca2+ Signal-EC50(nM) EP3 (hEP3A/Gqi5) | Ca2+ Signal-EC50(nM) EP4 (hEP4/Gqs5) | Ca2+ Signal-EC50(nM) TP (hTP) | Ca2+ Signal-EC50(nM) DP (hDP/Gqs5) | EC50 (EP2) | EC50 (hEP3A/Gqi5) | EC50 (hEP4/Gqs5) | EC50 (hDP/Gqs5; read-out: Ca2+ Signal-EC50(nM) DP) | SMILES |
| --- | --- | --- | --- | --- | --- | --- | --- | --- | --- | --- | --- |
| notactive | notactive | 731 nM |  | notactive | notactive | notactive | 94 nM | 182 nM |  |  | CCCCCC(O)c1ccc([C@@H]2[C@@H](C/C=C\CCCC(=O)O)CC[C@H]2Cl)cc1 (some centres unmarked) [compound 6] |
| notactive | notactive | 2510 nM |  |  | notactive | notactive | 73 nM | 3480 nM | > 10000 nM |  | CCCCCC(O)c1ccc([C@@H]2[C@@H](C/C=C\CCCC(=O)O)CC[C@H]2O)cc1 (some centres unmarked) [compound 7] |
| notactive | notactive | 381 nM |  | notactive | notactive | notactive | 34 nM | 4420 nM |  |  | CCCCCC(O)c1ccc([C@H]2C(=O)CC[C@@H]2C/C=C\CCCC(=O)O)cc1 (some centres unmarked) [compound 5] |
